# Data as given in US10836768B2, “N-acyl-(3-substituted)-(8-substituted)-5,6-dihydro-[1,2,4]triazolo[4,3-a]pyrazines as selective NK-3 receptor antagonists” (OGEDA SA, priority 2013, dated 2020).
# Test: Determination of plasma protein binding (equilibrium dialysis)
# Assay type: in vitro ADME
# Settings: bound drug fraction to plasma protein; 4 hours at 37° C.
# Source text: Determination of Plasma Protein Binding
# The pharmacokinetic and pharmacodynamic properties of chemicals/drugs are largely a function of the reversible binding of chemicals to plasma or serum proteins. […] Consequently, the extent of the plasma protein binding (PPB) of a compound influences its action as well as its distribution and elimination.
# The determination of plasma protein binding (PPB) of a compound is enabled by equilibrium dialysis, an accepted and standard method for reliable estimation of the non-bound drug fraction in plasma. RED (Rapid Equilibrium Dialysis) device insert is made of two side-by-side chambers separated by an O-ring-sealed vertical cylinder of dialysis membrane (MWCO ˜8,000). […] After 4 hours incubation at 37° C. under shaking, an aliquot is removed from each chamber and analyzed by a LC-MS/MS procedure enables the determination of both free and bound drug.
# The “free fraction” may be calculated as 100%−% rPPB (i.e. the complementary percentage of that disclosed in Table 4, corresponding to the drug concentration that is unbound and therefore available to engage biological target and elicit pharmacological activity).
row,Compound,Exposure (% rPPB) [%]
1,"Cc1nsc(-c2nnc3n2CCN(C(=O)c2ccc(F)cc2)C3C)n1 (racemic) [Compound 14, (4-fluorophenyl)(8-methyl-3-(3-methyl-1,2,4-thiadiazol-5-yl)-5,6-dihydro-[1,2,4]triazolo[4,3-a]pyrazin-7(8H)-yl)methanone]",21
2,"CCC1c2nnc(-c3nc(C)ns3)n2CCN1C(=O)c1ccc(F)cc1 (racemic) [Compound 23, (8-ethyl-3-(3-methyl-1,2,4-thiadiazol-5-yl)-5,6-dihydro-[1,2,4]triazolo[4,3-a]pyrazin-7(8H)-yl)(4-fluorophenyl)methanone]",34
3,"Cc1nsc(-c2nnc3n2CCN(C(=O)c2cc(F)c(F)c(F)c2F)C3C)n1 (racemic) [Compound 31, (8-methyl-3-(3-methyl-1,2,4-thiadiazol-5-yl)-5,6-dihydro-[1,2,4]triazolo[4,3-a]pyrazin-7(8H)-yl)(2,3,4,5-tetrafluorophenyl)methanone]",31
4,Cc1nsc(-c2nnc3n2CCN(C(=O)c2ccc(F)c(F)c2)C3C)n1 (racemic) [Compound 32],25
5,"Cc1nsc(-c2nnc3n2CCN(C(=O)c2ccc(F)c(F)c2F)C3C)n1 (racemic) [Compound 33, (8-methyl-3-(3-methyl-1,2,4-thiadiazol-5-yl)-5,6-dihydro-[1,2,4]triazolo[4,3-a]pyrazin-7(8H)-yl)(2,3,4-trifluorophenyl)methanone]",29
6,"Cc1nsc(-c2nnc3n2CCN(C(=O)c2cc(F)c(F)c(F)c2)C3C)n1 (racemic) [Compound 34, (8-methyl-3-(3-methyl-1,2,4-thiadiazol-5-yl)-5,6-dihydro-[1,2,4]triazolo[4,3-a]pyrazin-7(8H)-yl)(3,4,5-trifluorophenyl)methanone]",24
7,"Cc1nsc(-c2nnc3n2CCN(C(=O)c2ccc(F)c(Cl)c2)C3C)n1 (racemic) [Compound 35, (3-chloro-4-fluorophenyl)(8-methyl-3-(3-methyl-1,2,4-thiadiazol-5-yl)-5,6-dihydro-[1,2,4]triazolo[4,3-a]pyrazin-7(8H)-yl)methanone]",52
8,"Cc1nsc(-c2nnc3n2CCN(C(=O)c2ccc(Cl)c(F)c2)C3C)n1 (racemic) [Compound 36, (4-chloro-3-fluorophenyl)(8-methyl-3-(3-methyl-1,2,4-thiadiazol-5-yl)-5,6-dihydro-[1,2,4]triazolo[4,3-a]pyrazin-7(8H)-yl)methanone]",60
9,"Cc1nsc(-c2nnc3n2CCN(C(=O)c2ccc(Cl)c(Cl)c2)C3C)n1 (racemic) [Compound 38, (3,4-dichlorophenyl)(8-methyl-3-(3-methyl-1,2,4-thiadiazol-5-yl)-5,6-dihydro-[1,2,4]triazolo[4,3-a]pyrazin-7(8H)-yl)methanone]",76
10,"CCc1nsc(-c2nnc3n2CCN(C(=O)c2ccc(F)cc2)C3C)n1 (racemic) [Compound 39, (3-(3-ethyl-1,2,4-thiadiazol-5-yl)-8-methyl-5,6-dihydro-[1,2,4]triazolo[4,3-a]pyrazin-7(8H)-yl)(4-fluorophenyl)methanone]",43
11,"CCc1noc(-c2nnc3n2CCN(C(=O)c2ccc(F)cc2)C3C)n1 (racemic) [Compound 40, (3-(3-ethyl-1,2,4-oxadiazol-5-yl)-8-methyl-5,6-dihydro-[1,2,4]triazolo[4,3-a]pyrazin-7(8H)-yl)(4-fluorophenyl)methanone]",24
12,"Cc1nsc(-c2nnc3n2CCN(C(=O)c2ccc(F)c(Cl)c2)[C@@H]3C)n1 [Compound 6, (R)-(3-chloro-4-fluorophenyl)(8-methyl-3-(3-methyl-1,2,4-thiadiazol-5-yl)-5,6-dihydro-[1,2,4]triazolo[4,3-a]pyrazin-7(8H)-yl)methanone]",53
13,"Cc1nsc(-c2nnc3n2CCN(C(=O)c2cc(F)c(F)c(F)c2)[C@@H]3C)n1 [Compound 7, (R)-(8-methyl-3-(3-methyl-1,2,4-thiadiazol-5-yl)-5,6-dihydro-[1,2,4]triazolo[4,3-a]pyrazin-7(8H)-yl)(3,4,5-trifluorophenyl)methanone]",26
14,"Cc1nsc(-c2nnc3n2CCN(C(=O)c2cc(F)c(F)c(F)c2F)[C@@H]3C)n1 [Compound 10, (R)-(8-methyl-3-(3-methyl-1,2,4-thiadiazol-5-yl)-5,6-dihydro-[1,2,4]triazolo[4,3-a]pyrazin-7(8H)-yl)(2,3,4,5-tetrafluorophenyl)methanone]",30
15,"Cc1nsc(-c2nnc3n2CCN(C(=O)c2cccc(F)c2)[C@@H]3C)n1 [Compound 15, (R)-(3-fluorophenyl)(8-methyl-3-(3-methyl-1,2,4-thiadiazol-5-yl)-5,6-dihydro-[1,2,4]triazolo[4,3-a]pyrazin-7(8H)-yl)methanone]",20
16,"Cc1nsc(-c2nnc3n2CCN(C(=O)c2cccc(Cl)c2)[C@@H]3C)n1 [Compound 16, (R)-(3-chlorophenyl)(8-methyl-3-(3-methyl-1,2,4-thiadiazol-5-yl)-5,6-dihydro-[1,2,4]triazolo[4,3-a]pyrazin-7(8H)-yl)methanone]",36
17,"Cc1nsc(-c2nnc3n2CCN(C(=O)c2cc(F)cc(F)c2)[C@@H]3C)n1 [Compound 17, (R)-(3,5-difluorophenyl)(8-methyl-3-(3-methyl-1,2,4-thiadiazol-5-yl)-5,6-dihydro-[1,2,4]triazolo[4,3-a]pyrazin-7(8H)-yl)methanone]",24
18,"Cc1nsc(-c2nnc3n2CCN(C(=O)c2ccc(F)cc2F)[C@@H]3C)n1 [Compound 18, (R)-(2,4-difluorophenyl)(8-methyl-3-(3-methyl-1,2,4-thiadiazol-5-yl)-5,6-dihydro-[1,2,4]triazolo[4,3-a]pyrazin-7(8H)-yl)methanone]",23
19,"Cc1ccc(C(=O)N2CCn3c(-c4nc(C)ns4)nnc3[C@H]2C)cc1 [Compound 19, (R)-(8-methyl-3-(3-methyl-1,2,4-thiadiazol-5-yl)-5,6-dihydro-[1,2,4]triazolo[4,3-a]pyrazin-7(8H)-yl)(p-tolyl)methanone]",51
20,"Cc1nsc(-c2nnc3n2CCN(C(=O)c2ccc(C(F)(F)F)cc2)[C@@H]3C)n1 [Compound 21, (R)-(8-methyl-3-(3-methyl-1,2,4-thiadiazol-5-yl)-5,6-dihydro-[1,2,4]triazolo[4,3-a]pyrazin-7(8H)-yl)(4-(trifluoromethyl)phenyl) methanone]",38
21,"CC[C@@H]1c2nnc(-c3nc(C)ns3)n2CCN1C(=O)c1ccc(F)cc1 [Compound 22, (R)-(8-ethyl-3-(3-methyl-1,2,4-thiadiazol-5-yl)-5,6-dihydro-[1,2,4]triazolo[4,3-a]pyrazin-7(8H)-yl)(4-fluorophenyl)methanone]",27
22,"CCC[C@@H]1c2nnc(-c3nc(C)ns3)n2CCN1C(=O)c1ccc(F)cc1 [Compound 24, (R)-(4-fluorophenyl)(3-(3-methyl-1,2,4-thiadiazol-5-yl)-8-propyl-5,6-dihydro-[1,2,4]triazolo[4,3-a]pyrazin-7(8H)-yl)methanone]",48
23,"COc1cc(C(=O)N2CCn3c(-c4nc(C)ns4)nnc3[C@H]2C)ccc1F [Compound 25, (R)-(4-fluoro-3-methoxyphenyl)(8-methyl-3-(3-methyl-1,2,4-thiadiazol-5-yl)-5,6-dihydro-[1,2,4]triazolo[4,3-a]pyrazin-7(8H)-yl)methanone]",19
24,"Cc1nsc(-c2nnc3n2CCN(C(=O)c2ccccc2C)[C@@H]3C)n1 [Compound 26, (R)-(8-methyl-3-(3-methyl-1,2,4-thiadiazol-5-yl)-5,6-dihydro-[1,2,4]triazolo[4,3-a]pyrazin-7(8H)-yl)(o-tolyl)methanone]",19
25,"COc1cccc(C(=O)N2CCn3c(-c4nc(C)ns4)nnc3[C@H]2C)c1 [Compound 27, (R)-(3-methoxyphenyl)(8-methyl-3-(3-methyl-1,2,4-thiadiazol-5-yl)-5,6-dihydro-[1,2,4]triazolo[4,3-a]pyrazin-7(8H)-yl)methanone]",24
26,"Cc1noc(-c2nnc3n2CCN(C(=O)c2ccc(F)cc2)[C@@H]3C)n1 [Compound 28, (R)-(4-fluorophenyl)(8-methyl-3-(3-methyl-1,2,4-oxadiazol-5-yl)-5,6-dihydro-[1,2,4]triazolo[4,3-a]pyrazin-7(8H)-yl)methanone]",12
27,"Cc1nsc(-c2nnc3n2CCN(C(=O)c2ccc(C#N)cc2)[C@@H]3C)n1 [Compound 29, (R)-4-(8-methyl-3-(3-methyl-1,2,4-thiadiazol-5-yl)-5,6,7,8-tetrahydro-[1,2,4]triazolo[4,3-a]pyrazine-7-carbonyl)benzonitrile]",10
28,"C[C@@H]1c2nnc(-c3nc(C(F)F)ns3)n2CCN1C(=O)c1ccc(F)cc1 [Compound 42, (R)-(3-(3-(difluoromethyl)-1,2,4-thiadiazol-5-yl)-8-methyl-5,6-dihydro-[1,2,4]triazolo[4,3-a]pyrazin-7(8H)-yl)(4-fluorophenyl)methanone]",16
